The source made the active and inactive calls. The rule behind the calls is not given here. Residues, ends and D or L forms follow the SMILES beside them. *: point of attachment. X1 = O=C(CCC(=O)*)OCC(O)C1OC(=O)C(O)=C1O; Palmitoyl = CCCCCCCCCCCCCCCC(=O)*
How the values were obtained:
[1] = test system: HDF; assay: Stimulation of collagen biosynthesis in primary cultured neonatal HDF at 1 to 1000 uM after 72 hrs by ELISA in presence of fetal bovine serum; type: functional, cell-based; settings: Homo sapiens
[2] = Stability in rat skin homogenates assessed as compound remain after 6 hrs; type: ADME, tissue-based, Zone of skin; settings: read-out: Stability
[3] = Stability in rat skin homogenates; type: ADME, tissue-based, Zone of skin; settings: read-out: Stability
[4] = Cytotoxicity against HDF at >100 uM; type: cell-based; settings: human
[5] = test system: HDF; assay: Stimulation of collagen biosynthesis in primary cultured neonatal HDF at 100 uM after 72 hrs by ELISA in presence of fetal bovine serum; type: functional, cell-based; settings: Homo sapiens

Compound | Activity [1] | remaining at 6 h [2] | half-life [3] | Activity [4] | Activity [5]
H-KTTKS-OH | inactive |  |  |  | 
C[C@@H](O)[C@H](NC(=O)[C@H](CCCCN)NC(=O)CCC(=O)OCC(O)C1OC(=O)C(O)=C1O)C(=O)N[C@H](C(=O)N[C@@H](CCCCN)C(=O)N[C@@H](CO)C(=O)O)[C@@H](C)O (some centres not stated) (X1-KTTKS-OH) | Active | < 10% | > 6 h |  | 
CCCCCCCCCCCCCCCC(=O)N[C@@H](CCCCN)C(=O)N[C@H](C(=O)N[C@H](C(=O)N[C@@H](CCCCN)C(=O)N[C@@H](CO)C(=O)O)[C@@H](C)O)[C@@H](C)O (Palmitoyl-KTTKS-OH) |  |  |  | Active | Active
O=C1O[C@H]([C@@H](O)CO)C(O)=C1O | inactive |  |  |  | 

— ChEMBL document CHEMBL1153942, “Design and efficient synthesis of novel ascorbyl conjugated peptide with high collagen biosynthesis stimulating effects” (Bioorg Med Chem Lett, 2009)
